Experimental data as given in patent US11964971B2, “Methods and compositions for modulating splicing” (Skyhawk Therapeutics, Inc., priority 2019, dated 2024).

Assays:
SMN protein = SMN protein assay (MSD) in SMA patient fibroblasts (GM03813); format: cell-based, human
Protocol: Compounds are tested on spinal muscular atrophy (SMA) patient fibroblasts (GM03813, Coriell) at doses ranging from 2.5 μM to 0.6 nM. 7000 cells/well are seeded in 96-well plates. Compounds are incubated for 48 hours and the cells were lysed with 100 μL of lysis buffer. 20 μL of lysate is used for SMN protein measurement by Mesoscale Discovery (MSD) assay developed by PharmOptima (Michigan). A standard curve prepared with SMN protein ranging from […] is used in each MSD plate to calculate the absolute SMN protein amount in each sample.

MDR1 = assay: in vitro; conditions: dog; for Papp A→B at 120 min, 5 μM: MDCK-MDR1, pH 7.4, MDCK-MDR1: Papp A-B (10^−6, cm/s); for Papp B→A at 120 min, 5 μM: MDCK-MDR1, pH 7.4, MDCK-MDR1: Papp B-A (10^−6, cm/s)
[1] = system: MDR1-MDCK cell monolayers; conditions: dog, MDCK-MDR1, 120 min, 5 μM, pH 7.4
MDR1 (P-gp) = assay: MDCK-MDR1 permeability assay, blood-brain-barrier penetration potential; conditions: dog, MDCK-MDR1, pH 7.4, MDCK-MDR1 Efflux Ratio

SMILES	EC50 (SMN protein) [nM]	Papp A→B at 120 min, 5 μM (MDR1) [×10⁻⁶ cm/s]	Papp B→A at 120 min, 5 μM (MDR1) [×10⁻⁶ cm/s]	MDCK-MDR1: % Recov A-B (%) [1] [%]	MDCK-MDR1: % Recov B-A (%) [1] [%]	efflux ratio at 120 min, 5 μM (MDR1 (P-gp))
CN(c1cnc(-c2cc(F)c(-n3ccnn3)cc2O)cn1)[C@@H]1CC2CC[C@H](N2)[C@@H]1F (single isomer, unassigned) [Compound 21E1]	501 to 10000	8.48	43.5	83	91	5
CN(c1cnc(-c2cc(F)c(-n3ccnn3)cc2O)cn1)[C@H]1C[C@@H]2CCC(N2)[C@H]1F (single isomer, unassigned) [Compound 21E2]	501 to 10000	11.3	48	78	85	4
CN(c1cnc(-c2ccc(-c3cn[nH]c3)cc2O)cn1)[C@@H]1CC2CC[C@H](N2)[C@H]1F (single isomer, unassigned) [Compound 27E1]	501 to 10000	3.87	28.7	77	79	7
CN(c1cnc(-c2cc(F)c(-c3cnn(CF)c3)cc2O)cn1)[C@@H]1CC2CC[C@H](N2)[C@@H]1F (single isomer, unassigned) [Compound 29E1]	16 to 50	6.29	17.2	38	56	3
COc1cc(-c2cc(O)c(-c3cnc(N(C)[C@@H]4CC5CC[C@H](N5)[C@@H]4F)cn3)cc2F)ccn1 (single isomer, unassigned) [Compound 30E1]	501 to 10000	3.95	5.24	13	49	1
COc1cc(-c2cc(O)c(-c3cnc(N(C)[C@H]4C[C@@H]5CCC(N5)[C@H]4F)cn3)cc2F)ccn1 (single isomer, unassigned) [Compound 30E2]	51 to 100	2.55	4.14	10	37	2
COc1cc(-c2cc(O)c(-c3cnc(N(C)[C@@H]4CC5CC[C@H](N5)[C@@H]4F)cn3)cc2F)cc(F)n1 (single isomer, unassigned) [Compound 31E1]	501 to 10000	0.48	0.8	58	65	2
COc1cc(-c2cc(O)c(-c3cnc(N(C)[C@H]4C[C@@H]5CCC(N5)[C@H]4F)cn3)cc2F)cc(F)n1 (single isomer, unassigned) [Compound 31E2]	16 to 50	0.33	0.5	59	67	2
CN(c1cnc(-c2cc(F)c(-c3ccn(CF)c(=O)c3)cc2O)cn1)[C@H]1C[C@@H]2CCC(N2)[C@H]1F (single isomer, unassigned) [Compound 32E2]	16 to 50	2.58	51.2	86	88	20
CN(c1cnc(-c2cc(F)c(-c3cc(=O)n(C)cn3)cc2O)cn1)[C@H]1C[C@@H]2CCC(N2)[C@H]1F (single isomer, unassigned) [Compound 33E2]	501 to 10000	3.5	62.7	91	99	18
Cn1cc(-c2cc(O)c(-c3cnc(N(C4CC4)[C@H]4C[C@@H]5CCC(N5)[C@H]4F)cn3)cc2F)cn1 (single isomer, unassigned) [Compound 35E2]	501 to 10000	4.64	17.9	32	61	4
COc1cc(-c2cc(O)c(-c3cnc(N(C4CC4)[C@@H]4CC5CC[C@H](N5)[C@@H]4F)cn3)cc2F)ccn1 (single isomer, unassigned) [Compound 36E1]	501 to 10000	0.52	1.41	8	37	3
COc1cc(-c2cc(O)c(-c3cnc(N(C4CC4)[C@H]4C[C@@H]5CCC(N5)[C@H]4F)cn3)cc2F)ccn1 (single isomer, unassigned) [Compound 36E2]	501 to 10000	0.59	1.3	10	40	2
COc1cc(-c2cc(O)c(-c3cnc(N(C4CC4)[C@@H]4CC5CC[C@H](N5)[C@@H]4F)cn3)cc2F)cc(F)n1 (single isomer, unassigned) [Compound 37E1]	501 to 10000	1.41	2.73	18	53	2
COc1cc(-c2cc(O)c(-c3cnc(N(C4CC4)[C@H]4C[C@@H]5CCC(N5)[C@H]4F)cn3)cc2F)cc(F)n1 (single isomer, unassigned) [Compound 37E2]	501 to 10000	0.94	2.58	19	45	3
Cn1ccc(-c2cc(O)c(-c3cnc(N(C4CC4)[C@@H]4CC5CC[C@H](N5)[C@@H]4F)cn3)cc2F)cc1=O (single isomer, unassigned) [Compound 38E1]	501 to 10000	1.47	54.9	81	94	37
Cn1ccc(-c2cc(O)c(-c3cnc(N(C4CC4)[C@H]4C[C@@H]5CCC(N5)[C@H]4F)cn3)cc2F)cc1=O (single isomer, unassigned) [Compound 38E2]	501 to 10000	1.75	57.7	82	82	33
O=c1cc(-c2cc(O)c(-c3cnc(N(C4CC4)[C@@H]4CC5CC[C@H](N5)[C@@H]4F)cn3)cc2F)ccn1CF (single isomer, unassigned) [Compound 39E1]	501 to 10000	2.1	64.2	70	89	31
O=c1cc(-c2cc(O)c(-c3cnc(N(C4CC4)[C@H]4C[C@@H]5CCC(N5)[C@H]4F)cn3)cc2F)ccn1CF (single isomer, unassigned) [Compound 39E2]	501 to 10000	2.58	62	82	81	24
Oc1cc(-c2cn[nH]c2)c(F)cc1-c1cnc(N(C2CC2)[C@@H]2CC3CC[C@H](N3)[C@@H]2F)cn1 (single isomer, unassigned) [Compound 41E1]	501 to 10000	6.63	39.2	54	75	8
Oc1cc(-c2cn[nH]c2)c(F)cc1-c1cnc(N(C2CC2)[C@H]2C[C@@H]3CCC(N3)[C@H]2F)cn1 (single isomer, unassigned) [Compound 41E2]	101 to 500	6.09	34.4	54	72	6
CN(c1cnc(-c2ccc(-c3cnn(CF)c3)cc2O)cn1)[C@H]1C[C@@H]2CCC(N2)[C@H]1F (single isomer, unassigned) [Compound 42E2]	501 to 10000	5.95	31.8	44	60	5
COc1cc(-c2ccc(-c3cnc(N(C)[C@@H]4CC5CC[C@H](N5)[C@@H]4F)cn3)c(O)c2)ccn1 (single isomer, unassigned) [Compound 43E1]	101 to 500	1.06	1.31	18	50	1
COc1cc(-c2ccc(-c3cnc(N(C)[C@H]4C[C@@H]5CCC(N5)[C@H]4F)cn3)c(O)c2)ccn1 (single isomer, unassigned) [Compound 43E2]	16 to 50	0.98	1.35	12	49	1
COc1cc(-c2ccc(-c3cnc(N(C)[C@@H]4CC5CC[C@H](N5)[C@@H]4F)cn3)c(O)c2)cc(F)n1 (single isomer, unassigned) [Compound 44E1]	501 to 10000	2.33	5.55	14	41	2
